PubChem BioAssay (NCI)
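Five concentrations, 48 hours, 96-well plates. Abbreviation: GI50, concentration required for 50% inhibition of growth. TGI is the concentration that stops growth completely.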

Legend:
Assay in all cases: NCI tumour cell line growth inhibition, 48 h
ACHN renal = test system: ACHN renal
HOP-62 NSCLC = test system: HOP-62 NSCLC
A498 renal = test system: A498 renal
NCI-H23 lung = test system: NCI-H23 lung
IGROV1 ovarian = test system: IGROV1 ovarian
U251 CNS = test system: U251 CNS
MALME-3M melanoma = test system: MALME-3M melanoma
OVCAR-8 ovarian = test system: OVCAR-8 ovarian
SR leukemia = test system: SR leukemia
UO-31 renal = test system: UO-31 renal

Row | Compound | TGI (ACHN renal) | TGI (HOP-62 NSCLC) | TGI (A498 renal) | TGI (NCI-H23 lung) | TGI (IGROV1 ovarian) | TGI (U251 CNS) | TGI (MALME-3M melanoma) | TGI (OVCAR-8 ovarian) | TGI (SR leukemia) | TGI (UO-31 renal) | GI50 (ACHN renal) | GI50 (HOP-62 NSCLC) | GI50 (NCI-H23 lung) | GI50 (UO-31 renal) | GI50 (IGROV1 ovarian) | GI50 (U251 CNS) | GI50 (MALME-3M melanoma) | GI50 (OVCAR-8 ovarian) | GI50 (SR leukemia) | GI50 (A498 renal)
1 | Cc1ccc(C2=C(c3ccccc3)C(Br)(c3ccc(C)cc3)C(c3ccccc3)=C2c2ccc(C)cc2)cc1 | > 100 µM | > 100 µM | > 100 µM | > 100 µM | > 100 µM | > 100 µM | > 100 µM | > 100 µM | – | – | – | – | – | – | – | – | – | – | – | –
2 | COc1cc(C=C2C(=O)NC(=O)NC2=O)cc(OC)c1OC | > 100 µM | > 100 µM | – | > 100 µM | – | > 100 µM | > 100 µM | > 100 µM | > 100 µM | > 100 µM | – | – | – | – | – | – | – | – | – | –
3 | CN1c2ccc(Cl)cc2C(=O)NC1c1ccc([N+](=O)[O-])s1 (configuration not stated) | 51.7 µM | 59.6 µM | 32.8 µM | – | 31.5 µM | 32.5 µM | – | 38.9 µM | 35.1 µM | 26.5 µM | – | – | – | – | – | – | – | – | – | –
4 | COc1ccc(/C=C/c2ccnc3ccccc23)c(OC)c1 | > 10 µM | > 10 µM | > 10 µM | – | > 10 µM | > 10 µM | > 10 µM | > 10 µM | – | > 10 µM | – | – | – | – | – | – | – | – | – | –
5 | OC[C@H]1CCCC1O (some centres not stated) | > 100 µM | – | > 100 µM | > 100 µM | > 100 µM | > 100 µM | > 100 µM | > 100 µM | > 100 µM | > 100 µM | – | – | – | – | – | – | – | – | – | –
6 | Clc1ccc(C2=Nn3c(COc4ccccc4Cl)nnc3SC2)c(Cl)c1 | 51.6 µM | 65 µM | – | 39.6 µM | > 100 µM | 45.8 µM | 70.6 µM | > 100 µM | – | > 100 µM | 17.3 µM | 24300 nM | 15.5 µM | 31.2 µM | 33600 nM | 14.2 µM | 20.3 µM | 29.6 µM | – | –
7 | Cc1cn(C2CC(O)C(CO)O2)c(=O)n2nnnc12 (configuration not stated) | – | > 100 µM | > 100 µM | > 100 µM | > 100 µM | > 100 µM | > 100 µM | > 100 µM | > 100 µM | > 100 µM | – | – | – | – | – | – | – | – | – | –
8 | Cc1cc(Cl)ccc1N=C1NC(=O)C(CC(=O)Nc2ccc([N+](=O)[O-])cc2[N+](=O)[O-])S1 (configuration not stated) | 71.4 µM | 85 µM | 51.5 µM | 51.8 µM | > 100 µM | 59.9 µM | 73.2 µM | > 100 µM | – | 42.6 µM | – | – | – | – | – | – | – | – | – | –
9 | NCCCCN(CCCN)/[N+]([O-])=N\O | > 100 µM | > 100 µM | – | > 100 µM | > 100 µM | > 100 µM | > 100 µM | > 100 µM | > 100 µM | > 100 µM | – | – | – | – | – | – | – | – | – | –
10 | C[C@@H]1CC(=O)C2CCCC1C2=O (some centres not stated) | > 100 µM | > 100 µM | > 100 µM | – | > 100 µM | > 100 µM | > 100 µM | > 100 µM | > 100 µM | > 100 µM | – | – | – | – | – | – | – | – | – | –
11 | CC(C)C(Nc1c2ccccc2nc2ccccc12)C(=O)O (configuration not stated) | > 100 µM | – | – | > 100 µM | > 100 µM | > 100 µM | > 100 µM | > 100 µM | > 100 µM | > 100 µM | – | – | – | – | – | – | – | – | – | –
12 | Cc1cc(C(=O)Nc2ncc(Cc3cccc(C(F)(F)F)c3)s2)c2ccccc2n1 | > 100 µM | > 100 µM | – | > 100 µM | > 100 µM | > 100 µM | > 100 µM | > 100 µM | > 100 µM | > 100 µM | 0.339 µM | 1460 nM | 3.9 µM | 1.5 µM | 3460 nM | 2.92 µM | 3.51 µM | 3.49 µM | 2020 nM | –
13 | Cc1cccc(N2CCN(C(=S)c3ccc4c(c3)OCO4)CC2)c1 | > 100 µM | > 100 µM | 67.9 µM | > 100 µM | > 100 µM | > 100 µM | – | > 100 µM | > 100 µM | > 100 µM | 3.88 µM | 883 nM | 7.07 µM | 14.4 µM | 1210 nM | 1.89 µM | – | 1.81 µM | 557 nM | 0.799 µM
14 | Clc1nc(Cl)c(Cl)c(-c2ccccc2)n1 | 33.5 µM | 18.1 µM | – | 35 µM | 31.1 µM | 30.3 µM | 53.7 µM | > 100 µM | – | 34.7 µM | – | – | – | – | – | – | – | – | – | –
15 | CN1C(=O)c2cccc3cc([N+](=O)[O-])cc(c23)C1=O | > 10 µM | > 10 µM | – | > 10 µM | > 10 µM | > 10 µM | > 10 µM | > 10 µM | > 10 µM | – | – | – | – | – | – | – | – | – | – | –
16 | CC(C)(C)c1ccc2c(c1)S(=O)(=O)Nc1ccccc1NS(=O)(=O)c1cc(C(C)(C)C)ccc1OCCOCCOCCO2 | > 100 µM | > 100 µM | > 100 µM | > 100 µM | > 100 µM | > 100 µM | 97 µM | > 100 µM | – | > 100 µM | – | – | – | – | – | – | – | – | – | –
17 | C=C1C(=O)O[C@H]2[C@H]1CC/C(COC(=O)C(=O)c1cn(Cc3ccccc3)c3ccccc13)=C\CC[C@@]1(C)O[C@@H]21 | – | 5.51 µM | 35.2 µM | 3.56 µM | 3.84 µM | 14.7 µM | 4.39 µM | 11.4 µM | > 100 µM | 3.1 µM | – | 2030 nM | 1.67 µM | 1.61 µM | 1920 nM | 4.01 µM | 2.08 µM | 3.04 µM | 1000 nM | 18.5 µM
18 | COc1ccccc1CCc1cc(OC)c(OC)c(OC)c1 | > 100 µM | > 100 µM | > 100 µM | – | > 100 µM | > 100 µM | > 100 µM | > 100 µM | – | 61.3 µM | – | – | – | – | – | – | – | – | – | –
19 | O=C1C2C3C=C4c5ccccc5N(c5ccccc5)C4(C2C(=O)N1Cc1ccccc1)C1C(=O)N(Cc2ccccc2)C(=O)C31 (configuration not stated) | > 100 µM | – | > 100 µM | > 100 µM | – | > 100 µM | > 100 µM | > 100 µM | > 100 µM | > 100 µM | – | – | – | – | – | – | – | – | – | –
20 | COC1(OC)C2(Cl)C(Cl)=C(Cl)C1(Cl)C1C=CC=CC12 (configuration not stated) | > 100 µM | > 100 µM | – | > 100 µM | > 100 µM | > 100 µM | > 100 µM | > 100 µM | > 100 µM | > 100 µM | – | – | – | – | – | – | – | – | – | –
21 | CC1(C)C(=O)N(CCCCCCN2C(=O)C(C)(C)c3ccccc32)c2ccccc21 | 97 µM | > 100 µM | > 100 µM | > 100 µM | > 100 µM | > 100 µM | 75.8 µM | > 100 µM | – | 92.6 µM | – | – | – | – | – | – | – | – | – | –
22 | Cc1ccn2c(c1)nc1nc3ccccc3nc12 | > 100 µM | > 100 µM | – | > 100 µM | > 100 µM | > 100 µM | – | > 100 µM | > 100 µM | > 100 µM | – | – | – | – | – | – | – | – | – | –
